In publication PMC6530361, “Anti-tumor Efficacy Assessment of the Sigma Receptor Pan Modulator RC-106. A Promising Therapeutic Tool for Pancreatic Cancer” (Frontiers in Pharmacology, 2019):

Experiments:
Capan-1 = assay: TUNEL assay; format: cell-based; details: Capan-1, RC-106 50 μM, 48 h
Method: (§1) TUNEL assay was performed as previously described ([Tesei et al., 2007]). Briefly, cells were fixed in 1% formaldehyde in PBS on ice for 15 min, suspended in 70% ice cold ethanol and stored overnight at […]. Cells were then washed twice in PBS and re-suspended in PBS containing 0.1% Triton X-100 for 5 min at […]. Thereafter, samples were incubated in 50 μL of solution containing TdT and FITC conjugated dUTP deoxynucleotides 1:1 (Roche Diagnostic GmbH, Mannheim, Germany) in a humidified atmosphere for 90 min at 37°C in the dark, washed in PBS, counterstained with propidium iodide (2.5 μg/mL, MP Biomedicals, Verona, Italy) and RNAse (10 kU/mL, Sigma–Aldrich) for 30 min at […] in the dark and analyzed by flow cytometry. Flow cytometric analysis was performed using a FACS Canto flow cytometer (Becton Dickinson, San Diego, CA, United States). Data acquisition and analysis were performed using FACSDiva software (Becton Dickinson). Samples were run in triplicate and 10,000 events were collected for each replicate.

Panc-1 = assay: TUNEL assay; format: cell-based; details: Panc-1, RC-106 50 μM, 48 h
Method: as §1

[1] = In vivo pharmacokinetic study, plasma; parameters: species or system male CD-1 mice; details: mice
Method: (§2) The experiments were performed in agreement with the Italian Law D. L.vo 4 marzo 2014, n. 26. The treatments involved male CD-1 mice and a unique number on the tail identified each animal. Mice were housed, in groups of four, in cages suitable for the species. After 5 days of adaptation to the local housing conditions, animals were housed in a single, exclusive, air-conditioned room to provide a minimum of 15 air changes/hour. The environmental controls were set to maintain the temperature at around 22°C and the relative humidity within the range 50 to 60%, along with an approximate 12:12 h light/dark cycle automatically controlled. Food (Mucedola Standard GLP diet) and water were available ad libitum throughout the entire duration of the study. All animals were weighted on the day of the treatment.
(§3) Mice (n = 4/time point) received an intraperitoneal administration (i.p., 10 mL/kg) of RC-106 at 10 mg/kg. CD-1 male mice were exsanguinated under anesthesia (isoflurane) from the aorta at the following time points: 5, 10, 30, 120, 240, and 480 min. Blood samples were collected in tubes containing heparin, gently mixed and immediately placed on ice. Afterward, they have been centrifuged (3500 × g, at 4°C for 15 min), the obtained plasma has been collected and transferred to individually labeled tubes and frozen at -20°C until the analysis. Plasma samples were used for quantification of RC-106. Pancreas was taken by surgical resection after 20 min from the last treatment, washed in saline, dried on paper, weighted and frozen at -20°C. The organ was homogenized using a Velp OV5 homogenizer with 20 mM ammonium formiate buffer in a ratio of 1 g of tissue per 10 mL of buffer.
(§4) 20 mg/mL stock solution (s.s.) of RC-106 was prepared by dissolving the compound in DMSO. 1 mL of 5% Tween80 in H2O was slowly added to 500 μL of s.s. under stirring. Then 8.5 mL of water was gently spiked to obtain the 1 mg/mL formulation of RC-106.
(§5) Standard curves of RC-106 were prepared for plasma and pancreas homogenate, and analyzed together with each QC and unknown sample set. For the PK and pancreas distribution sample analysis, plasma and pancreas homogenate samples (50 μL) were spiked in 200 μL of IS in MeOH (0.1 μg/mL of RC-33), followed by 2 min vortex mixing. Samples were centrifuged and transferred in UFLC vials. 5 μL aliquots of the collected samples were injected into the LC-MS/MS system. Standard calibration graphs were constructed by linear least-squares regression analysis on the analyte/IS area ratio plotted against sample concentration. Calibration ranges were from 5 to 1000 ng/mL for plasma, and from 5 to 500 ng/mL for pancreas homogenate. Accuracy values were determined in triplicates at three different concentrations (high, medium, and low) in the range of linearity of the calibration curves.
(§6) Analyses were acquired on a Shimadzu AC20 UFLC system interfaced with an API 3200 Triple Quadrupole detector (AB Sciex). Data acquisition and control were performed using the Analyst^TM 6.1 (Applied Biosystems) Software. A Phenomenex Gemini-NX C18 (50 mm × 2 mm, 5 μm) column was selected to carry out the analytical evaluations. A gradient method was set up (Supplementary Table S1) and it provided the employment of water and methanol, both containing 0.1% of formic acid, at a flow rate of 0.3 mL/min. The LC eluate was directly introduced into the MS interface using the ESI in the positive ion mode. The MRM transitions m/z 181.2 were tracked (Supplementary Table S2).

[2] = In vivo pancreas distribution study; parameters: species or system male CD-1 mice; details: male, CD-1, mouse, ip, mice
Method: as §2
as §3, with “Pancreas was taken by surgical resection after 20 min from the last treatment, washed in saline, dried on paper, weighted and frozen at -20°C.” left out
as §4, §5, §6

S1R = system: S1R; parameters: method as in Rui et al., 2016; Rossi et al., 2017; details: ref Rui et al., 2016; Rossi et al., 2017; cited from earlier work
S2R = system: S2R; parameters: method as in Rui et al., 2016; Rossi et al., 2017; details: ref Rui et al., 2016; Rossi et al., 2017; cited from earlier work
[3] = male, CD-1, mouse, plasma, ip, 10 mg/kg

Cmax [1, 3]: 973 ng/mL
AUC(0-t) ([1]; male, CD-1, mouse, plasma, ip, 10 mg/kg, i.p., 10 mg/kg, read-out: AUC0-t, plasma (converted)): 1130 ng·h/mL
concentration at 5 min ([1]; male, CD-1, mouse, plasma, ip, 5 min after i.p. 10 mg/kg, read-out: plasma C): 973 ng/mL
concentration at 10 min ([1]; male, CD-1, mouse, plasma, ip, 10 min after i.p. 10 mg/kg, read-out: plasma C): 884 ng/mL
concentration at 30 min ([1]; male, CD-1, mouse, plasma, ip, 30 min after i.p. 10 mg/kg, read-out: plasma C): 361 ng/mL
concentration at 120 min ([1]; male, CD-1, mouse, plasma, ip, 120 min after i.p. 10 mg/kg, read-out: plasma C): 134 ng/mL
concentration at 240 min ([1]; male, CD-1, mouse, plasma, ip, 240 min after i.p. 10 mg/kg, read-out: plasma C): 76 ng/mL
concentration at 480 min ([1]; male, CD-1, mouse, plasma, ip, 480 min after i.p. 10 mg/kg, read-out: plasma C): 38 ng/mL
Tmax [1, 3]: 5 min
half-life ([1]; male, CD-1, mouse, plasma, ip, i.p., 10 mg/kg, read-out: t1/2, plasma): 202 min
AUC0-t, plasma ([1]; i.p., 10 mg/kg): 67987 ng·min/mL
Cmax, plasma ([1]; i.p., 10 mg/kg): 973 ± 167 ng/mL
AUC(0-t) ([2]; pancreas, 10 mg/kg, i.p., 10 mg/kg, read-out: AUC0-t, pancreas (converted)): 28800 ng·h/mL
concentration at 5 min ([2]; pancreas, 5 min after i.p. 10 mg/kg, read-out: pancreas C): 25300 ng/g
concentration at 10 min ([2]; pancreas, 10 min after i.p. 10 mg/kg, read-out: pancreas C): 13900 ng/g
concentration at 30 min ([2]; pancreas, 30 min after i.p. 10 mg/kg, read-out: pancreas C): 11100 ng/g
concentration at 120 min ([2]; pancreas, 120 min after i.p. 10 mg/kg, read-out: pancreas C): 2710 ng/g
concentration at 240 min ([2]; pancreas, 240 min after i.p. 10 mg/kg, read-out: pancreas C): 2310 ng/g
concentration at 480 min ([2]; pancreas, 480 min after i.p. 10 mg/kg, read-out: pancreas C): 995 ng/g
Tmax ([2]; pancreas, 10 mg/kg): 5 min
Cmax ([2]; pancreas, i.p., 10 mg/kg, read-out: Cmax, pancreas): 25300 ± 5600 ng/g
Cmax ([2]; pancreas, i.p., 10 mg/kg, read-out: Cmax, pancreas (molar)): ~70 µM
half-life ([2]; pancreas, i.p., 10 mg/kg, read-out: t1/2, pancreas): 240 min
Kp ([2]; pancreas/plasma, 10 mg/kg, i.p., 10 mg/kg, read-out: AUC0-t pancreas/AUC0-t plasma): ~25
Compound: C/C(=C\CN1CCC(Cc2ccccc2)CC1)c1ccc2ccccc2c1 [RC-106, (E)-4-benzyl-1-(3-(naphthalen-2-yl)but-2-en-1-yl)piperidine]
percentage of apoptotic cells (Capan-1): 78.55%
percentage of apoptotic cells (Panc-1): 53.25%
S1R modulatory profile (S1R): S1R antagonist
S2R modulatory profile (S2R): S2R agonist
